Source: the NIST ThermoML archive (doi:10.1016/j.fluid.2007.09.023)
Numbers after ± are expanded uncertainties.

Test: molar heat capacity at constant volume
Conditions: Vacuum adiabatic calorimetry

Structure (SMILES): Cc1ccccc1 [toluene]
- molar heat capacity at constant volume (386.9 K, Fluid (supercritical or subcritical phases), Mass density=777.8 kg/m3): 147.79 ± 2.9 J/K/mol
- molar heat capacity at constant volume (386.9 K, Liquid): 147.79 ± 2.9 J/K/mol
- molar heat capacity at constant volume (387.48 K, Fluid (supercritical or subcritical phases), Mass density=777.8 kg/m3): 147.7 ± 2.9 J/K/mol
- molar heat capacity at constant volume (387.84 K, Fluid (supercritical or subcritical phases), Mass density=777.8 kg/m3): 146.41 ± 2.9 J/K/mol
- molar heat capacity at constant volume (388.65 K, Fluid (supercritical or subcritical phases), Mass density=777.8 kg/m3): 146.96 ± 2.9 J/K/mol
- molar heat capacity at constant volume (392.83 K, Fluid (supercritical or subcritical phases), Mass density=777.8 kg/m3): 145.67 ± 2.9 J/K/mol
- molar heat capacity at constant volume (393.6 K, Fluid (supercritical or subcritical phases), Mass density=777.8 kg/m3): 144.01 ± 2.9 J/K/mol
- molar heat capacity at constant volume (399.34 K, Fluid (supercritical or subcritical phases), Mass density=777.8 kg/m3): 146.68 ± 2.9 J/K/mol
- molar heat capacity at constant volume (411.33 K, Fluid (supercritical or subcritical phases), Mass density=777.8 kg/m3): 148.9 ± 2.9 J/K/mol
- molar heat capacity at constant volume (413.55 K, Fluid (supercritical or subcritical phases), Mass density=777.8 kg/m3): 149.08 ± 2.9 J/K/mol
- molar heat capacity at constant volume (545.3 K, Fluid (supercritical or subcritical phases), Mass density=555.25 kg/m3): 189.99 ± 3.8 J/K/mol
- molar heat capacity at constant volume (545.3 K, Liquid): 189.99 ± 3.8 J/K/mol
- molar heat capacity at constant volume (545.51 K, Fluid (supercritical or subcritical phases), Mass density=555.25 kg/m3): 189.07 ± 3.8 J/K/mol
- molar heat capacity at constant volume (545.84 K, Fluid (supercritical or subcritical phases), Mass density=555.25 kg/m3): 188.79 ± 3.8 J/K/mol
- molar heat capacity at constant volume (545.93 K, Fluid (supercritical or subcritical phases), Mass density=555.25 kg/m3): 189.44 ± 3.8 J/K/mol
- molar heat capacity at constant volume (548.72 K, Fluid (supercritical or subcritical phases), Mass density=555.25 kg/m3): 187.41 ± 3.8 J/K/mol
- molar heat capacity at constant volume (549.32 K, Fluid (supercritical or subcritical phases), Mass density=555.25 kg/m3): 189.25 ± 3.8 J/K/mol
- molar heat capacity at constant volume (550.41 K, Fluid (supercritical or subcritical phases), Mass density=555.25 kg/m3): 188.52 ± 3.8 J/K/mol
- molar heat capacity at constant volume (589.54 K, Fluid (supercritical or subcritical phases), Mass density=214.64 kg/m3): 349.57 ± 7.7 J/K/mol
- molar heat capacity at constant volume (589.54 K, Gas): 349.57 ± 7 J/K/mol
- molar heat capacity at constant volume (589.66 K, Fluid (supercritical or subcritical phases), Mass density=214.64 kg/m3): 307.47 ± 6.4 J/K/mol
- molar heat capacity at constant volume (589.72 K, Fluid (supercritical or subcritical phases), Mass density=214.64 kg/m3): 299.45 ± 6.2 J/K/mol
- molar heat capacity at constant volume (589.84 K, Fluid (supercritical or subcritical phases), Mass density=214.64 kg/m3): 280.47 ± 6 J/K/mol
- molar heat capacity at constant volume (590.03 K, Fluid (supercritical or subcritical phases), Mass density=214.64 kg/m3): 271.9 ± 5.8 J/K/mol
- molar heat capacity at constant volume (590.09 K, Fluid (supercritical or subcritical phases), Mass density=214.64 kg/m3): 264.9 ± 5.7 J/K/mol
- molar heat capacity at constant volume (590.51 K, Fluid (supercritical or subcritical phases), Mass density=214.64 kg/m3): 250.8 ± 5.2 J/K/mol
- molar heat capacity at constant volume (590.58 K, Fluid (supercritical or subcritical phases), Mass density=214.64 kg/m3): 252.92 ± 5.2 J/K/mol
- molar heat capacity at constant volume (591.72 K, Gas): 385.6 ± 9.2 J/K/mol
- molar heat capacity at constant volume (591.84 K, Gas): 425.4 ± 9.9 J/K/mol
- molar heat capacity at constant volume (591.85 K, Liquid): 331.51 ± 6.6 J/K/mol
- molar heat capacity at constant volume (591.87 K, Liquid): 422.18 ± 8.5 J/K/mol
- molar heat capacity at constant volume (591.88 K, Liquid): 442.26 ± 8.8 J/K/mol
